Test results taken from paper PMC12195967, “Cobalt(II) Complexes of 4′–Nitro–Fenamic Acid: Characterization and Biological Evaluation” (Molecules, 2025).

Assays:
[1] = biological target: T1, bovine serum albumin (BSA) (Bos taurus, UniProt P02769); assay: Albumin tryptophan fluorescence quenching; assay type: binding; details: for relative fluorescence intensity of BSA (I/Io, %), final: % of the initial BSA fluorescence remaining, λem 345 nm; for K(BSA): Scatchard equation, no site marker; for Kq (BSA): τ0 = 10^−8 s
T1 construct: purchased Sigma-Aldrich Co
Procedure: (§1) The interaction between complexes 1–4 and albumins was investigated by recording the tryptophan fluorescence emission spectra and monitoring the quenching induced by incremental amounts of the complexes. For these experiments, albumins ([…]) were prepared in buffer solution (150 mM NaCl and 15 mM trisodium citrate at pH = 7) and their fluorescence emission spectra were recorded in the range 300—500 nm for λexcitation = 295 nm. Upon incremental addition of the compounds (Figures S13 and S14), a significant decrease in the intensity of the corresponding emission band at λmax,emission = 341 nm and 345 nm for HSA and BSA, respectively, was observed (up to 87% of the initial fluorescence, Figure 8). The observed fluorescence emission quenching might be a result of a change in the spatial conformation of the protein and specifically of rearrangement of its secondary structure, as a result of SA–complex interactions. To quantify this interaction, the fluorescence emission spectra (λexcitation = 295 nm) of the compounds were subtracted from the corresponding overall spectra. The potential influence of the inner-filter effect on the measurements was evaluated with Equation (S6) and was found negligible to affect the measurements.
(§2) The Stern–Volmer constant (KSV), the SA-quenching constant (Kq) and the SA-binding constant (K) of the compounds were determined using the Stern–Volmer and Scatchard equations (Equations (S2), (S3) and (S7)) and corresponding plots (Figures S15–S18). In these calculations, the fluorescence lifetime of tryptophan in SAs (το) was assumed to be 10^−8 s. […]
(§3) S5 Albumin−binding studies
(§4) S5.1 Interaction with albumins
(§5) In order to study the interaction of the compounds with the albumins, the compound was initially dissolved in DMSO (1 mM). Mixing of such solutions with the aqueous buffer solutions of the albumins used in the studies never exceeded 5% DMSO (v/v) in the final solution, which was needed due to low aqueous solubility of most […]
(§6) With the purpose to investigate if the compound can bind to carrier protein like serum albumins, albumin binding studies were carried out by tryptophan fluorescence quenching experiments using BSA or HSA (3 μM) in buffer (containing 15 mM trisodium citrate and 150 mM NaCl at pH 7.0). The quenching of the emission intensity of tryptophan residues of BSA at 344 nm or HSA at 342 nm was monitored using the compound as quenchers with increasing concentration. The fluorescence emission spectra of the compound were also recorded with λexcitation = 295 nm; in case that an additional emission band appeared the albumin−fluorescence emission spectra were corrected by subtracting the spectra of the compound. The influence of the inner−filter effect on the measurements was evaluated by the equation [9] :
(§7) Icorr = Imeas × 10 2 × 10 2 (equation S6) where Icorr = corrected intensity, Imeas = the measured intensity, c = the concentration of the quencher, d = the cuvette (1 cm), ε(λexc) and ε(λem) = the ε of the quencher at the excitation and the emission wavelength, respectively, as calculated from the UV−vis spectra of the […]
(§8) The Stern−Volmer and Scatchard graphs are used to study the interaction of the compound with the albumins. According to the Stern−Volmer quenching equation (equation S2), where Io = initial tryptophan fluorescence intensity of albumin, I = tryptophan fluorescence intensity of BSA after the addition of the quencher, Kq = quenching constant, KSV = Stern−Volmer constant, τo = average lifetime of albumin without the quencher, and, taking as fluorescence lifetime (τo) of tryptophan in albumin at around 10−8 s, KSV (in M−1) can be obtained by the slope of the diagram Io/I versus [compound] (Stern−Volmer plots), […]
(§9) and subsequently the quenching constant (Kq, in M−1s−1) may be calculated from equation From the Scatchard equation:
(§10) [Q] = nK − K Io (equation S7) where n is the number of binding sites per albumin and K is the albumin−binding constant […]

[2] = biological target: T2, human serum albumin (HSA) (Homo sapiens, UniProt P02768); assay: Albumin tryptophan fluorescence quenching; assay type: binding; details: for relative fluorescence intensity of HSA (I/Io, %), final: % of the initial HSA fluorescence remaining, λem 341 nm; for K(HSA): Scatchard equation, no site marker; for Kq (HSA): τ0 = 10^−8 s
T2 construct: purchased Sigma-Aldrich Co
Procedure: as §1, §2, §3, §4, §5, §6, §7, §8, §9, §10

[3] = ABTS radical cation scavenging; details: compounds 0.1 mM; absorbance 734 nm after 1 min
Procedure: The ABTS-scavenging was measured through the discoloration of a dark green solution containing the cationic radical ABTS^•+, which was induced from the oxidation derived from hydrogen-donating antioxidants, either complexes or standards, and is often considered a marker of total oxidation capacity. […] Such an increase in activity upon coordination is expected for metal–NSAID complexes.
S1 Antioxidant activity assay
The antioxidant activity of the compound was evaluated via the ability to scavenge in vitro free radicals such as DPPH and ABTS and to reduce H2O2. All the experiments were carried out at least in triplicate and the standard deviation of absorbance was less than 10% […]
S1.2 Assay of radical cation ABTS−scavenging activity
The ABTS assay was performed to determine the activity of the compounds to scavenge the radical cation ABTS. Initially, a water solution of ABTS was prepared (2 mM).
ABTS radical cation (ABTS+·) was produced by the reaction of ABTS stock solution with potassium persulfate (0.17 mM) and the mixture was stored in the dark at room temperature for 12−16 h before its use. The ABTS was oxidized incompletely because the stoichiometric reaction ratio of ABTS and potassium persulfate is 1:0.5. The absorbance became maximal and stable only after more than 6 h of reaction although the oxidation of the ABTS started immediately. The radical was stable in this form for more than 2 days when allowed to stand in the dark at room temperature. Afterwards, the ABTS+· solution was diluted in ethanol to an absorbance of 0.70 at 734 nm and 10 μL of diluted compounds or standards (0.1 mM) in DMSO were added. The absorbance was recorded out exactly 1 min after initial mixing.
The ABTS–radical scavenging activity of the compounds was expressed as the percentage inhibition of the absorbance of the initial ABTS solution (ABTS%). […]

T2 sequence (P02768 25-609): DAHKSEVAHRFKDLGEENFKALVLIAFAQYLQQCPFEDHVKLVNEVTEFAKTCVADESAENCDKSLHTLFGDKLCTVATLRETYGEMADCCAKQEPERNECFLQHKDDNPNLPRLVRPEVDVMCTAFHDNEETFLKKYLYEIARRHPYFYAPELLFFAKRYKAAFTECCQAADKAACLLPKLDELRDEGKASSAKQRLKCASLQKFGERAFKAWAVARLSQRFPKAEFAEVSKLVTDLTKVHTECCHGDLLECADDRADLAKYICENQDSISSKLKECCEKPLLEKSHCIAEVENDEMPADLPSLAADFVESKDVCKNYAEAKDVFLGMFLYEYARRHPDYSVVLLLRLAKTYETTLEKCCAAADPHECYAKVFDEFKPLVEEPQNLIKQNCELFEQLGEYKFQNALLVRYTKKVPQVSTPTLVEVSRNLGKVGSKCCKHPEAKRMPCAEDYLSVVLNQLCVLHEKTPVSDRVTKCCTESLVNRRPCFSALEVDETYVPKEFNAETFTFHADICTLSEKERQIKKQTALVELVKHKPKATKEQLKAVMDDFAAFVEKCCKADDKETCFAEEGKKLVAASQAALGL
T1 sequence (P02769 25-607): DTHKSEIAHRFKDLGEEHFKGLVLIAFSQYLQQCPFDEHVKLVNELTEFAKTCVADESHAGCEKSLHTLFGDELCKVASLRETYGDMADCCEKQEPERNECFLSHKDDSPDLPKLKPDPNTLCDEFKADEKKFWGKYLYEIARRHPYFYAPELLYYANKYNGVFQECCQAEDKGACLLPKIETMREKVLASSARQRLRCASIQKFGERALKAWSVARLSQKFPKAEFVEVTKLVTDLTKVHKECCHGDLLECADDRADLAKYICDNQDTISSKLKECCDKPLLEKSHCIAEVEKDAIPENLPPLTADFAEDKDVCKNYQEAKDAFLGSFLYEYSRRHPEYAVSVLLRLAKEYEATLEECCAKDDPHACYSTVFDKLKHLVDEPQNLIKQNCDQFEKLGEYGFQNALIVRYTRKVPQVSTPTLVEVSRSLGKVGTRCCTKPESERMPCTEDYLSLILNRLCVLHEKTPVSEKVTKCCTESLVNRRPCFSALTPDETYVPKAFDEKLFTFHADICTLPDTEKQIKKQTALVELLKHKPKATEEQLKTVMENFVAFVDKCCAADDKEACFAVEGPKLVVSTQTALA

| Structure (SMILES) | relative fluorescence intensity of BSA (I/Io, %), final [1] [%] | K(BSA) [1] | Kq (BSA) [1] | relative fluorescence intensity of HSA (I/Io, %), final [2] [%] | K(HSA) [2] | Kq (HSA) [2] | %ABTS radical scavenging activity (ABTS%) [3] |
| --- | --- | --- | --- | --- | --- | --- | --- |
| C[O-].C[O-].Cc1ccc2ccc3ccc(C)nc3c2n1.Cc1ccc2ccc3ccc(C)nc3c2n1.O=C([O-])c1ccccc1Nc1ccc([N+](=O)[O-])cc1.O=C([O-])c1ccccc1Nc1ccc([N+](=O)[O-])cc1.[Co+2].[Co+2] [Complex 4, [Co2(4′–NO2–fen)2(μ–CH3O)2(neoc)2]] | 19.2 | 2.74 (±0.10) × 10^5 M^−1 | 2.19 (±0.05) × 10^13 M^−1s^−1 | 12.1 | 5.03 (±0.19) × 10^5 M^−1 | 3.98 (±0.12) × 10^13 M^−1s^−1 | 21.39 ± 0.22% |
| O=C(O)c1ccccc1Nc1ccc([N+](=O)[O-])cc1 [4′–NO2–fenH, 4′–nitrofenamic acid] | 45.0 | 3.31 (±0.14) × 10^5 M^−1 | 1.18 (±0.09) × 10^13 M^−1s^−1 | 54.3 | 3.82 (±0.09) × 10^5 M^−1 | 9.54 (±1.09) × 10^12 M^−1s^−1 | Not active |
| O=C([O-])c1ccccc1Nc1ccc([N+](=O)[O-])cc1.O=C([O-])c1ccccc1Nc1ccc([N+](=O)[O-])cc1.[Co+2].c1cnc2c(c1)ccc1cccnc12 [Complex 3, [Co(4′–NO2–fen)2(phen)]] | 24.4 | 2.06 (±0.07) × 10^5 M^−1 | 1.64 (±0.04) × 10^13 M^−1s^−1 | 22.7 | 1.93 (±0.09) × 10^5 M^−1 | 1.87 (±0.04) × 10^13 M^−1s^−1 | 48.12 ± 0.88% |
| CO.CO.CO.CO.O=C([O-])c1ccccc1Nc1ccc([N+](=O)[O-])cc1.O=C([O-])c1ccccc1Nc1ccc([N+](=O)[O-])cc1.[Co+2] [Complex 1, [Co(4′–NO2–fen)2(MeOH)4]] | 45.6 | 1.68 (±0.07) × 10^5 M^−1 | 9.51 (±0.06) × 10^12 M^−1s^−1 | 32.8 | 1.68 (±0.04) × 10^5 M^−1 | 1.10 (±0.03) × 10^13 M^−1s^−1 | 24.68 ± 0.35% |
| O=C([O-])c1ccccc1Nc1ccc([N+](=O)[O-])cc1.O=C([O-])c1ccccc1Nc1ccc([N+](=O)[O-])cc1.[Co+2].c1ccc(Nc2ccccn2)nc1 [Complex 2, [Co(4′–NO2–fen)2(bipyam)]] | 35.3 | 1.75 (±0.08) × 10^5 M^−1 | 1.30 (±0.06) × 10^13 M^−1s^−1 | 21.1 | 2.56 (±0.10) × 10^5 M^−1 | 1.91 (±0.06) × 10^13 M^−1s^−1 | 43.65 ± 0.37% |
